Data set [1] in a line: Stability (heat, alkali, aqueous solution) of compounds A to G. The class given is physicochemical.
Data set [2] can be described thus: Solubility of compounds A to G. It counts as physicochemical. The conditions noted are these: in water and organic solvents.
In another data set the test system is ulcer. Nature of the data set: Anti-ulcer test (restraint and water immersion ulcer in rats, i.p.). It counts as in vivo, Male Wistar rats. The conditions noted are these: Rattus norvegicus, ip; 50 mg/kg i.p.; read-out: % Inhibition of Ulcer. The method, boiled down:
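Compound given intraperitoneally in saline to 24 h-fasted male Wistar rats about 150 g, followed after one hour by 6 h restraint with water immersion at 21 °C. Gastric lesions graded 0, 0.5, 1, 2 or 3 on microscopic inspection and converted to percent ulcer inhibition.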

`CC(C)CC(NC(=N)C(O)C(O)C(N)CC(=O)O)C1Cc2cccc(O)c2C(=O)O1` (stereo not drawn) [A]: the “stability to heat and/or alkali” value in data set [1] was “very labile to heat and alkali”. Also, the solubility entry in data set [2] was “freely soluble in water, methanol, dimethylformamide, and dimethyl sulfoxide, sparingly soluble in a lower alcohol of C2 to C3 and dioxane, and substantially insoluble in ethyl acetate, chloroform, ether, hexane and benzene”. Further, the inhibition in vivo at 50 mg/kg with ulcer worked out at 100%.
On to `CC(=O)NC1CC(=O)OC1C(O)C(=O)NC(CC(C)C)C1Cc2cccc(O)c2C(=O)O1` (stereo not drawn) [C], for which, in data set [1], the “stability to heat and/or alkali” value was “as labile to alkali is AI-77-B”. The solubility entry in data set [2] was “freely soluble in lower alcohols, dimethylformamide, dimethyl sulfoxide and dioxane, sparingly soluble in chloroform and ethyl acetate, and substanitally insoluble in water, ether, hexane and benzene”. In addition, the inhibition in vivo at 50 mg/kg in the data set with ulcer stood at 66%.
With `CC(C)CC(NC(=O)C(O)C1C=CC(=O)O1)C1Cc2cccc(O)c2C(=O)O1` (stereo not drawn) [F], the “stability to heat and/or alkali” value in data set [1] is listed as “as labile to alkali as AI-77-B”. Further, the solubility entry in data set [2] is “freely soluble in ethyl acetate, chloroform, dimethylformamide and dimethyl sulfoxide, sparingly soluble in lower alcohols and dioxane, and substantially insoluble in water, hexane and benzene”. In addition, in the data set on ulcer, the inhibition in vivo at 50 mg/kg came to 44%.
For the compound `CCC(=O)NC1CC(=O)OC1C(O)C(=O)NC(CC(C)C)C1Cc2cccc(O)c2C(=O)O1` (stereo not drawn) [D], in data set [1], the “stability to heat and/or alkali” value is “as labile to alkali as AI-77-B”. Besides, the solubility result in data set [2] is “soluble in lower alcohol, dimethylformamide, dimethyl sulfoxide, dioxane, chloroform, and ethyl acetate, and substantially insoluble in water, ether, hexane and benzene”. In addition, the inhibition in vivo at 50 mg/kg in the data set on ulcer was 66%.
Turning to `CC(C)CC(NC(=O)C(O)C(O)C(N)CC(=O)O)C1Cc2cccc(O)c2C(=O)O1` (stereo not drawn) [B], in data set [1], the “stability to heat and/or alkali” value is reported as “labile to alkali in which the hydrolysis of lactone proceeds gradually even at room temperature”. For the same compound, in data set [2], the solubility result is “freely soluble in water, methanol, dimethylformamide and dimethyl sulfoxide, sparingly soluble in other lower alcohols, dioxane and tetrahydrofuran, and substantially insoluble in ethyl acetate, chloroform, ether, hexane and benzene”. For the same compound, the inhibition in vivo at 50 mg/kg in the data set on ulcer stood at 100%.
As for `CC(C)CC(NC(=O)C(O)C(O)C(N)CC(=O)O)C(O)Cc1cccc(O)c1C(=O)O` (stereo not drawn) [G], the “stability in aqueous solution” value in data set [1] (aqueous solution) is “relatively stable in aqueous solution”. In addition, the solubility result in data set [2] is “freely soluble in water and slightly soluble in organic solvents”. For the same compound, in the data set on ulcer, the inhibition in vivo at 50 mg/kg was 33%.
